Measurements reported in US10293026B2, “Agent for preventing or treating demyelinating disease” (Osaka University, priority 2014, dated 2019).

B1: FGF23: Recombinant FGF23 (R&D), comparison FGF subtype (protein, UniProt Q9GZV9 25-251, looked up)
Fibroblast growth factor 23: YPNASPLLGSSWGGLIHLYTATARNSYHLQIHKNGHVDGAPHQTIYSALMIRSEDAGFVVITGVMSRRYLCMDFRGNIFGSHYFDPENCRFQHQTLENGYDVYHSPQYHFLVSLGRAKRAFLPGMNPPPYSQFLSRRNEIPLIHFNTPIPRRHTRSAEDDSERDPLNVLKPRARMTPAPASCSQELPSAEDNSPMASDPLGVVRGGRVNTHAGGTGPEGCRPFAKFI
B2: FGF15: Recombinant FGF15 (Abcam), comparison FGF subtype (protein, UniProt O35622 26-218, looked up)
Fibroblast growth factor 15: RPLAQQSQSVSDEDPLFLYGWGKITRLQYLYSAGPYVSNCFLRIRSDGSVDCEEDQNERNLLEFRAVALKTIAIKDVSSVRYLCMSADGKIYGLIRYSEEDCTFREEMDCLGYNQYRSMKHHLHIIFIQAKPREQLQDQKPSNFIPVFHRSFFETGDQLRSKMFSLPLESDSMDPFRMVEDVDHLVKSPSFQK

Experiments:
[1] = test system: oligodendrocyte precursor cells; experiment: BrdU uptake by oligodendrocyte precursor cells with culture supernatant of cardiomyocytes and FGFR inhibitors (Example 1); format: cell-based, C57BL/6j mice; settings: SU5402 at 10, 30, 100 μM or PD173074 at 0.03, 0.1, 0.3, 1 μM added with supernatant; FIG. 1
Procedure: Hearts extracted from C57BL/6j mice (postnatal day 1-old) were minced, and then poured into 1 mg/ml of Type 1 collagenase (Worthington) and shaken at 37° C. for 20 minutes. The obtained cell suspension was pipetted and allowed to stand, and then the supernatant was collected. Remaining cardiomyocytes after the collection of the supernatant were again poured into 1 mg/ml of Type 1 collagenase (Worthington) and shaken at 37° C. for 20 minutes, and then the supernatant was collected. This operation was repeated three times. The collected supernatant was suspended in MEM ([…]) containing 5% calf serum, and the cell suspension was poured into a culture dish. After 30 minutes, suspension cells were collected, and were resuspended in MEM containing 5% calf serum and then centrifuged (2000 rpm, 6 minutes). […]
The harvested oligodendrocyte precursor cells were seeded in a poly-L-lysine (Sigma)-coated plastic tissue culture dish, and cultured in a medium for 1 day (37° C., 5% CO2). […] Bromodeoxyuridine (BrdU) was subsequently added and cultured at 37° C. for 24 hours, and then the cells were collected; the BrdU uptake was then detected using the cell proliferation ELISA, BrdU colorimetric kit (Roche). As a control, the BrdU uptake was measured under the same conditions as those described above, except that the culture supernatant of cardiomyocytes was not added. […]

[2] = test system: oligodendrocyte precursor cells; experiment: BrdU uptake by oligodendrocyte precursor cells with recombinant FGFs (Example 3); format: cell-based, C57BL/6j mice; settings: FGF at 10, 30 or 100 ng/ml, vs saline control; FIG. 3
Procedure: Recombinant FGF15 (Abcam), FGF21 (R&D), or FGF23 (R&D) was diluted in saline solution immediately before use to prepare an each FGF-containing solution. Oligodendrocyte precursor cells were harvested from C57BL/6j mice (postnatal day 1-old) brains, as in Example 1.
Initially, the oligodendrocyte precursor cells were seeded in a poly-L-lysinde (Sigma)-coated plastic tissue culture dish, and cultured in the following medium for 1 day (37° C., 5% CO2). The medium used was DMEM containing 4 mM L-gludamine (Sigma), 1 mM sodium pyruvate (Sigma), 0.1% bovine serum albumin (Sigma), 50 μg/ml apo-Transferrin (Sigma), 5 μg/ml insulin (Sigma), 30 nM sodium selenite (Sigma), 10 nM biotin (Sigma), 10 nM hydrocortisone (Sigma), 10 ng/ml Platelet-Derived Growth Factor-AA (Peprotech), and 10 ng/ml basic fibroblast growth factor (Peprotech). Thereafter, each type of FGF-containing solution was added to the culture medium of oligodendrocyte precursor cells such that the concentration of each type of FGF was 10 ng/ml, 30 ng/ml, or 100 ng/ml, and the cells were cultured at 37° C. for 24 hours. BrdU was subsequently added and cultured at 37° C. for 24 hours, and then the cells were collected; the BrdU uptake was then detected using the cell proliferation ELISA, BrdU colorimetric kit (Roche). As a control, an equivalent amount of saline solution was used instead of the FGF21-containing solution, and the BrdU uptake was measured under the same conditions as those described above. This experiment studied three cases for each group.

Molecule | increase in the BrdU uptake by culture supernatant of cardiomyocytes [1] | BrdU uptake by the oligodendrocyte precursor cells [2]
CCN(CC)CCCCNc1ncc2cc(-c3cc(OC)cc(OC)c3)c(NC(=O)NC(C)(C)C)nc2n1 [PD173074] | suppressed | 
Cc1c[nH]c(/C=C2\C(=O)Nc3ccccc32)c1CCC(=O)O [SU5402] | suppressed | 
B1 |  | significant difference in the amounts of BrdU uptake was not observed
B2 |  | significant difference in the amounts of BrdU uptake was not observed
